These results are taken from patent US12710366B2, “Dyes undergoing changes in color and fluorescence upon binding of organic oxo compounds” (Bundesrepublik Deutschland, vertreten durch den …, priority 2020, dated 2026).

“And” between values parts separate entries of the source, which are not always exact repeats. Equal entries are not always repeated. “Also recorded” adds a separate entry of the source.

The nature of data set [1]: UV/vis absorption and emission spectra (Stokes shift). It is filed as physicochemical. As to the method:
(§1) Absorption spectra and spectrophotometric titrations were acquired with a Specord 210 Plus spectrometer (Analytik Jena), using dilute solutions with an absorbance of about 0.1 at the absorption maximum. The binding constants were assessed with BindFit v0.5 software. Fluorescence spectra and titrations were carried out on a FluoroMax 4 spectrofluorometer (Horiba Jobin-Yvon).
Normalized UV/vis absorption and emission (λex=465 nm) spectra at a fixed concentration of thiourea-based compound 19 were recorded in CHCl3, toluene, acetonitrile (MeCN) and methanol (MeOH), yielding Stokes shifts between 160 nm and 230 nm, respectively. This positive solvatochromism is ascribed to the effective intramolecular charge transfer from the two electron-donating groups (thiourea and tertiary amine) to the electron-accepting benzodiazole as the solvent polarity increases (FIG. 1-4). […]
Normalized UV/vis absorption and emission spectra of guanidinium-based compound 25 at a fixed concentration were recorded in CHCl3 and MeCN. Sizable Stokes shifts of 180 nm and 210 nm were observed (FIGS. 8 and 9) as a result of the effective intramolecular charge transfer process established from the two electron-donating groups (guanidinium and tertiary amine) to the electron-accepting benzodiazole in solvents of different polarity.

Data set [2] can be described thus: Spectroscopic titration of compound 19 with ENOX-TBA in MeCN. It is filed as binding. As to the method: as §1
This example illustrates the titration of the thiourea-based compound 19 with the ammonium salt of the antibiotic enoxacin (ENOX-TBA) in MeCN. […] The bathochromic shift of the absorption band upon binding can be rationalized considering that the donor-acceptor interaction between the thiourea and benzoxadiazole is reinforced with the charge donation of the electron-rich carboxylate anion to the thiourea through such supramolecular interactions. […] The estimated binding constant for this interaction was calculated to be K19/ENOX-TBA=[…] in MeCN.

Data set [3] in a line: Solubility in polar solvents. The format is physicochemical. Conditions: polar organic solvents and solvent/water mixtures.
Data set [4] is described as follows: Spectroscopic titration of compound 25 with TBA-OAc. It is filed as binding. Conditions: for change of UV/vis absorption band upon titration with TBA-OAc / change of fluorescence emission upon titration with TBA-OAc: c[25]=9×10^−6 M. As to the method: as §1
The bathochromic shift of the absorption band upon binding can be rationalized considering that the donor-acceptor interaction between the guanidinium and the benzoxadiazole is reinforced by a charge donation of the electron-rich acetate anion to the guanidinium.

Turning to `C=C(C)C(=O)OCCN(C)c1ccc(NC(=S)NC(=O)c2ccccc2)c2nonc12` [Compound 19], in data set [1] (in MeCN), the absorption band position stood at 462 nm. Moreover, the Stokes shift in data set [1] (in acetonitrile (MeCN)) is given as more than 180 nm; in data set [1] (in chloroform (CHCl3)), more than 170 nm; in data set [1] (in methanol (MeOH)), more than 230 nm; in data set [1] (in toluene) it was more than 160 nm. Also, in data set [2], the “interaction with oxoanions (e.g. ENOX-TBA)” value is “can interact”. The “change of UV/vis absorption band upon titration with ENOX-TBA” value in data set [2] (MeCN, c[19]=2.2×10^−5 M) was “decrease and red shift”.

As to `C=C(C)C(=O)OCCN(C)c1ccc(NC(=N)NC(=O)c2ccccc2)c2nonc12` [Compound 23, 2-((7-(3-benzoylguanidino)benzo[c][1,2,5]oxadiazol-4-yl)(methyl)amino)ethyl methacrylate], the solubility entry in data set [3] is “soluble in polar organic solvents and polar organic solvent/water mixtures”.

For the molecule `C=C(C)C(=O)OCCN(C)c1ccc(NC(=N)NC(=O)c2ccccc2)c2nonc12.Cl` [Compound 25, benzamido((7-((2-(methacrycrykoyloxy)ethyl)(methyl)amino)benzo[c][1,2,5]oxadiazol-4-yl)amino)methaniminium chloride], the “change of UV/vis absorption band upon titration with TBA-OAc” value in data set [4] (CHCl3) is “decrease and a red shift”; in data set [4] (MeCN) it was “decrease and a red shift”. The “change of fluorescence emission upon titration with TBA-OAc” value in data set [4] (CHCl3) is “red shift and decrease; also recorded: quenching and a red shift; also recorded: decrease and red shift”; in data set [4] (MeCN), “red shift and decrease; also recorded: quenching and a red shift; also recorded: decrease and red shift”. Besides, the “interaction with oxoanions (e.g. TBA-OAc)” value in data set [4] (non-polar and polar solvents) is listed as “can interact”. Besides, in data set [1] (CHCl3 and MeCN), the absorption band position amounted to 450 nm. In addition, the Stokes shift in data set [1] (in acetonitrile (MeCN)) was 210 nm and > 210 nm; in data set [1] (in chloroform (CHCl3)), 180 nm and > 180 nm.
